Earlier results, collected in patent US20250303004A1, “RADIOPHARMACEUTICAL COMPOSITIONS FOR LOW TOXICITY ACTINIUM IN TARGETED RADIONUCLIDE THERAPY” (Curium US LLC, priority 2021, published 2025).

Tests used:
[1] = test system: patient with advanced mCRPC; details: cited from earlier work
[2] = test system: kidneys and lesion of a mCRPC patient; details: 8.1 MBq, cited from earlier work
patients = details: cited from earlier work
[3] = subgroup of 11 patients with prior ^177Lu-PSMA treatment
[4] = subgroup with prior ^177Lu-PSMA radioligand therapy

O=C(O)CC[C@H](NC(=O)N[C@@H](CCCCNC(=O)CCCCCCC(=O)NCCCC[C@@H](NC(=O)[C@@H](Cc1ccccc1)NC(=O)[C@@H](Cc1ccc(O)c(I)c1)NC(=O)CC[C@H](C(=O)O)N1CCN(CC(=O)O)CCN(CC(=O)O)CCN(CC(=O)O)CC1)C(=O)O)C(=O)O)C(=O)O.[225Ac+3] [^225Ac-PSMA-I&T, (3S,7S,26R,29R,32R,37R)-29-benzyl-32-(4-hydroxy-3-iodobenzyl)-5,13,20,28,31,34-hexaoxo-37-(4,7,10-tris(carboxymethyl)-1,4,7,10-tetraazacyclododecan-1-yl)-4,6,12,21,27,30,33-heptaazaheptatriacontane-1,3,7,26,37-pentacarboxylic acid; Actinium-225 (III)]
main TAT-related side effect ([1]; already preexisting after 10 cycles of RLT): grade 2 xerostomia
response ([1]; two cycles after failure of ^177Lu-PSMA-617 (10 cycles), FIG. 6): encouraging response
hematological side effects ([1]; two cycles): No TAT-related grade 3/4 hematological side effects were noted
absorbed dose, left kidney ([2]; SPECT/CT at 24 h p. i.): 0.18 Sv(RBE=5)/MBq
absorbed dose, right kidney ([2]; SPECT/CT at 24 h p. i.): 0.17 Sv(RBE=5)/MBq
absorbed dose, small lesion in the right hip [2]: 0.26 Sv(RBE=5)/MBq
acute toxicity during hospitalization (patients; 14 patients, 34 cycles, median 7.8 MBq): No acute toxicity was observed
hematologic toxicity (patients; 14 patients, FIG. 13): mild
patients with grade 1 nephrotoxicity (patients; 14 patients, FIG. 13): one
biochemical responses compared with ^225Ac-PSMA-617 TAT (patients; first clinical data): highly comparable biochemical responses
patients with grade 3 anemia after TAT (patients; of 14 patients, 2 with grade 2 anemia at baseline): 3 patients
patients reporting no xerostomia at all (patients; of 14 patients): One
patients with PSA decline of any amount (patients; of 14 patients): 11 patients
patients with best PSA response (PSA decline ≥50%) (patients; of 14 patients): 7 patients
patients with grade 3 leukopenia (patients; of 14 patients): 1 patients
patients with newly diagnosed grade 1 or 2 xerostomia after TAT (patients; of 14 patients): 5 patients
patients with no PSA decline at any time (patients; of 14 patients): Three
patients with preexisting xerostomia after ^177Lu-PSMA showing no worsening after TAT (patients; of 14 patients): Eight
patients with PSA decline of at least 50% (patients; [3]): 5 patients
patients with any PSA decline (patients; [3]): 8 patients
PSA decline ≥50% (patients; [4]): 45%
any PSA decline (patients; [4]): 73%
